We go through eleven molecules from patent publication US4081474A, “Sulfonyloxy bromoacetanilides and their utility as biocides” (Stauffer Chemical Company, priority 1976, dated 1978).

Assay type in all cases: cell-based
Experiment [1] relates to Aspergillus niger. Nature of the experiment: In Vitro Vial Test (malt broth). To be noted: 168 h; for MIC: read-out: Lowest Effective Concentration.
The test system of experiment [2] is Penicillium italicum. Nature of the experiment: In Vitro Vial Test (malt broth). To be noted: 168 h; for minimal effective concentration: read-out: Lowest Effective Concentration (partial control); for MIC: read-out: Lowest Effective Concentration.
The test system of experiment [3] is Escherichia coli. The experiment can be described thus: In Vitro Vial Test (nutrient broth). To be noted: 168 h; for minimal effective concentration: read-out: Lowest Effective Concentration (partial control); for MIC: read-out: Lowest Effective Concentration.
For experiment [4], the system named is Staphylococcus aureus. Nature of the experiment: In Vitro Vial Test (nutrient broth). The conditions noted are these: 168 h; for MIC: read-out: Lowest Effective Concentration.
Experiment [5] deals with Escherichia coli. The experiment can be described thus: Soap Plug Test. To be noted: 1% in sodium stearate soap plug, 37° C., 17 hours.
Experiment [6] has as its system Staphylococcus aureus. Nature of the experiment: Soap Plug Test. The conditions noted are these: 1% in sodium stearate soap plug, 37° C., 17 hours.
In experiment [7] the test system is Escherichia coli. The experiment can be described thus: Detergent Formulation Test. To be noted: washed cotton cloth, compounds at 0.2% in Tide detergent, 37° C.
Experiment [8] has as its system Staphylococcus aureus. The experiment can be described thus: Detergent Formulation Test. To be noted: washed cotton cloth, compounds at 0.2% in Tide detergent, 37° C.
The test system of experiment [9] is Brevibacterium ammoniagenes. Nature of the experiment: Detergent Formulation Test. To be noted: washed cotton cloth, compounds at 0.2% in Tide detergent, 37° C.
The subject of experiment [10] is Trichophyton mentagrophytes. Nature of the experiment: Detergent Formulation Test. To be noted: washed cotton cloth, compounds at 0.2% in Tide detergent, 37° C.
The test system of experiment [11] is Aspergillus niger. Nature of the experiment: Microbiocide Testing Procedure Using Agar. To be noted: potato dextrose agar, 30° C., read-out: Minimum Inhibitory Concentration. The method, then:
(§1) This test measures the bactericidal and fungicidal properties of a compound when in contact with a growing bacterium or fungi in an artificial medium. […] The treated agar mixture is then allowed to come to room temperature and solidify. Cells of the particular organism are then streaked on the surface of the solidified agar and are then incubated for such lengths of time that untreated samples containing no toxicant show luxurious growth typical of the particular organism. This time varies from 24 hours to one week, depending on the particular organism. The fungi are incubated at 30° C. and the bacteria are incubated at 37° C. Nutrient agar is used as the medium in this test for the bacteria. Potato dextrose agar is used as the medium for the fungi.

The subject of experiment [12] is Escherichia coli. Nature of the experiment: Microbiocide Testing Procedure Using Agar. The conditions noted are these: nutrient agar, 37° C., read-out: Minimum Inhibitory Concentration. The protocol:
as §1

Experiment [13] relates to Penicillium italicum. Nature of the experiment: Microbiocide Testing Procedure Using Agar. To be noted: potato dextrose agar, 30° C. The method, then:
as §1

Experiment [14] relates to Staphylococcus aureus. The experiment can be described thus: Microbiocide Testing Procedure Using Agar. To be noted: nutrient agar, 37° C., read-out: Minimum Inhibitory Concentration. The protocol: as §1
Where [15] appears, read: malt broth, one week, value printed in: partial control at this concentration.
Where [16] appears, read: nutrient broth, one week, value printed in: partial control at this concentration.

Values after ≈ are worked out from the molar mass of the structure shown. Where two headings read alike, the source gives them in different places. Bounds are passed on as bounds.

Turning to `O=C(CCl)Nc1cccc(O)c1` [A, reference compound], in experiment [1] (malt broth, one week), the MIC was > 500 µg/mL. Further, the minimal effective concentration in [2] (setting [15]) amounted to 500 µg/mL; in experiment [3] (setting [16]), 250 µg/mL; in experiment [4] (nutrient broth, one week, value printed in: partial control at this concentration, read-out: Lowest Effective Concentration (partial control)), 250 µg/mL.
Turning to `CC(C)NC(=O)Oc1cccc(NC(=O)CCl)c1` [B, reference compound], the MIC in experiment [1], in experiment [2], in experiment [3] and in experiment [4] was > 500 µg/mL each time.
As for `O=C(CBr)Nc1cccc(O)c1` [Compound 1, 3'-hydroxybromoacetanilide], the MIC turned out to be 100 µg/mL (≈ 435 µM) in [1] (malt broth, one week) and 10 µg/mL (≈ 43.5 µM) in experiment [4] (nutrient broth, one week). The minimal effective concentration in experiment [2] (setting [15]) was determined as 25 µg/mL; in experiment [3] (setting [16]), 10 µg/mL. Besides, the “Zone of Biological Inhibition (radius)” value in experiment [5] is listed as 2 mm; in experiment [6], 12-15 mm; in [7], 2 mm; in experiment [8], 3 mm; in experiment [9], 0 mm; in experiment [10] it was 1 mm.
With `CNC(=O)Oc1cccc(NC(=O)CBr)c1` [Compound 2, 3'-N-methyl carbamoyloxy bromoacetanilide], the MIC was > 50 µg/mL in experiment [1], > 50 µg/mL in experiment [2], 50 µg/mL (≈ 174 µM) in experiment [3] and 50 µg/mL (≈ 174 µM) in experiment [4].
Regarding `CC(C)NC(=O)Oc1cccc(NC(=O)CBr)c1` [Compound 3], the minimal effective concentration in [1] (read-out: Lowest Effective Concentration (partial control)) stood at 100 µg/mL; in [2] it was 25 µg/mL. Further, the results for the MIC in experiment [3] and in [4] were 25 µg/mL (≈ 79.3 µM) and 10 µg/mL (≈ 31.7 µM), respectively. The “Zone of Biological Inhibition (radius)” value was 2 mm in [5] and 6-8 mm in experiment [6].
Take `C=CCNC(=O)Oc1cccc(NC(=O)CBr)c1` [Compound 4]: the MIC is > 50 µg/mL in experiment [1], 50 µg/mL (≈ 160 µM) in [2], > 50 µg/mL in experiment [3] and 50 µg/mL (≈ 160 µM) in [4].
On to `O=C(CBr)Nc1cccc(OC(=O)NC2CCCCC2)c1` [Compound 5], for which the MIC in experiment [1] is > 50 µg/mL; in experiment [4], 50 µg/mL (≈ 141 µM). Besides, the minimal effective concentration in experiment [2] and in [3] was 50 µg/mL throughout.
With `O=C(CBr)Nc1ccc(O)cc1` [Compound 6], the MIC in experiment [1] (malt broth, one week) worked out at 50 µg/mL (≈ 217 µM); in experiment [2] (malt broth, one week) it was 50 µg/mL (≈ 217 µM); in experiment [3] (nutrient broth, one week), 25 µg/mL (≈ 109 µM); in experiment [4] (nutrient broth, one week), 25 µg/mL (≈ 109 µM).
Turning to `CC(C)CS(=O)(=O)Oc1cccc(NC(=O)CBr)c1` [Compound 7, m-Isobutylsulfonyloxy bromoacetanilide], the MIC in experiment [1] (malt broth, one week) is > 50 µg/mL; in [2] (malt broth, one week), 50 µg/mL (≈ 143 µM); in experiment [3] (nutrient broth, one week), > 50 µg/mL; in experiment [4] (nutrient broth, one week) it was 50 µg/mL (≈ 143 µM); in experiment [11] it was > 50 µg/mL; in experiment [12], > 50 µg/mL. The MIC in [13] (value printed in, not explained in Table III (Table II: partial control), read-out: Minimum Inhibitory Concentration (value in parentheses)) came to 10 µg/mL (≈ 28.6 µM); in experiment [14], 50 µg/mL (≈ 143 µM).
As to `O=C(CBr)Nc1cccc(OS(=O)(=O)c2ccccc2)c1` [Compound 8, m-Phenylsulfonyloxy bromoacetanilide], the MIC in experiment [1] (malt broth, one week) is > 50 µg/mL; in experiment [2] (malt broth, one week) it was 50 µg/mL (≈ 135 µM); in experiment [3] (nutrient broth, one week) it was > 50 µg/mL; in [4] (nutrient broth, one week) it was 50 µg/mL (≈ 135 µM); in experiment [11], > 50 µg/mL; in experiment [12], > 50 µg/mL. For the same molecule, the MIC is 50 µg/mL (≈ 135 µM) in [13] (read-out: Minimum Inhibitory Concentration) and 10 µg/mL (≈ 27 µM) in experiment [14].
In the case of `O=C(Nc1ccc(Cl)cc1)Nc1ccc(Cl)c(Cl)c1` [TCC, 3,4,4-trichlorocarbanilide, reference compound], the figures for the “Zone of Biological Inhibition (radius)” value in experiment [5] and in experiment [6] were 0 mm and 5 mm, respectively.
